{"source": "patent US20070099986A1", "about": "“Preventives/remedies for urinary disturbance” (priority 2005, published 2007)", "note": "Structures can show the parent of a compound that is named as a salt."}
{"target": "T1, acetylcholinesterase from human erythrocyte origin (Homo sapiens, UniProt P22303)", "T1 construct": "Acetylcholinesterase from human erythrocyte origin (Sigma Chemical Co.); purchased Sigma Chemical Co; host or cells: human erythrocytes (tissue-derived enzyme)", "T1 sequence (P22303 32-617 isoform P22303-2 limits assumed)": "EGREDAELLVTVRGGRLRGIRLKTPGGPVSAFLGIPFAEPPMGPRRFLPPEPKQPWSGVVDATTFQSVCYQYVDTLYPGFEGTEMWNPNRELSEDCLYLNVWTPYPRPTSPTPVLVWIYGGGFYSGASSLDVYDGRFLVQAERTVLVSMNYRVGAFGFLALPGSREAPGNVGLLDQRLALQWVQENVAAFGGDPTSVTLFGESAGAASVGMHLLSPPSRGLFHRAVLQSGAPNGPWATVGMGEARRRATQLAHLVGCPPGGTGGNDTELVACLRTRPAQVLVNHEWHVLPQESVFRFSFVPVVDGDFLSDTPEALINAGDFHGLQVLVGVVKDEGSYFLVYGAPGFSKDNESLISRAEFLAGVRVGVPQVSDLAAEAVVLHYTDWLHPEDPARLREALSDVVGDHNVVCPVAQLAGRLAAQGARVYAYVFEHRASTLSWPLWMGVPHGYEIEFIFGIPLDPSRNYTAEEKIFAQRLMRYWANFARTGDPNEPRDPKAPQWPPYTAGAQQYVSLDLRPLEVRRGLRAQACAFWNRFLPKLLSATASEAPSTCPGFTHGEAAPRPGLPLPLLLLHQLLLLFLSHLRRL", "assay": "Acetylcholinesterase-inhibitory action, acetylthiocholine method (Ellman method)", "format": "biochemical", "conditions": "repeated at least 3 times, read-out: AChE: IC50", "method": "a) Measurement of Acetylcholinesterase-Inhibitory Action\nAcetylcholinesterase-inhibitory action of the Example Compounds was measured using acetylcholinesterase from human erythrocyte origin according to the acetylthiocholine method (Ellman method).\nAcetylcholinesterase from human erythrocyte origin (Sigma Chemical Co.) was dissolved in distilled water at a concentration of 0.2 IU/mL to give an enzyme authentic sample. To a 96-well microplate 20 μL of drug solution, 30 μL of 80 mM Tris-HCl (pH 7.4), 50 μL of enzyme authentic sample and 50 μL of 5 mM 5,5-dithio-bis(2-nitrobenzoic acid) (Sigma Chemical Co.) were added, and the plate was shaken for 10 seconds. Then, 50 μL of acetylthiocholine iodide (Sigma Chemical Co.) was added, and the plate was again shaken. Immediately after shaking, absorbance at 414 nm was measured at intervals of 30 seconds for 10 minutes.\nThe experiment was repeated at least 3 times for each compound to obtain 50% inhibitory concentration (IC50). Moreover, in the same manner as mentioned above, acetylcholinesterase-inhibiting activity of distigmine was measured.", "units": {"IC50": "nM"}}
{"smiles": "NS(=O)(=O)c1cc(C(=O)CCCCNCCc2ccccc2OC(F)(F)F)cc2c1OCC2", "note": "[Example 6, 5-[5-({2-[2-(Trifluoromethoxy)phenyl]ethyl}amino)-pentanoyl]-2,3-dihydro-1-benzofuran-7-sulfonamide tosylate]", "IC50": 80}
{"smiles": "CN(CCCCCCN(C)C(=O)Oc1ccc[n+](C)c1)C(=O)Oc1ccc[n+](C)c1", "note": "[Distigmine, distigmine, reference compound]", "IC50": 270}
{"target": "T2, human adrenaline α1A receptor (Homo sapiens, UniProt P35348)", "T2 construct": "expressed in transfected cells", "T2 sequence (P35348 1-466)": "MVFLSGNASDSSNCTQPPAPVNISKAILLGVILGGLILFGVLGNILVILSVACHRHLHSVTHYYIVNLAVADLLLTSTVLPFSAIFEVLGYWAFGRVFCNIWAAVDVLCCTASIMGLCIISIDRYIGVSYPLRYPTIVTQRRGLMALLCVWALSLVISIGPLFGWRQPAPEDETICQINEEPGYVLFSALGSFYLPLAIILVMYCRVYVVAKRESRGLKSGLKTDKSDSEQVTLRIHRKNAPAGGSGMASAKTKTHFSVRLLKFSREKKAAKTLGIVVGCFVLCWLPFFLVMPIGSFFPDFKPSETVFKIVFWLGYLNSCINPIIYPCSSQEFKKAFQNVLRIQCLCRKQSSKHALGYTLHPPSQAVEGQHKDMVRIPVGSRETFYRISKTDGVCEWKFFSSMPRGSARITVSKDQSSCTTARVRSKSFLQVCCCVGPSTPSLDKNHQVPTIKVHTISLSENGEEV", "assay": "α1A receptor binding inhibitory activity, [3H]-Prazosin binding to CHO-K1 membrane fraction", "conditions": "inhibition of [3H]-Prazosin (2.5 nM) binding to membrane fraction of CHO-K1 cells expressing human α1A receptor", "method": "b) Measurement of α1 A Receptor Binding Inhibitory Activity\nThe genetic engineering procedures as described below were based on the methods described in the textbook (Maniatis, et al., Molecular Cloning, Cold Spring Harbor Laboratory, 1989) or the methods described in the protocols attached to the reagents.\n(i) Preparation of Expression Plasmid of Human Adrenaline α1 A Receptor\nAn adrenaline α1 A receptor gene was cloned from human liver cDNA by means of a PCR method. PCR reaction was performed in a Gene Amp PCR System 9700 (Applied Biosystems) with 200 ng of a human liver cDNA library (Takara Shuzo Co., Ltd.) as a template, by adding 50 pmol of each of the primer sets shown below which were prepared with referring to the base sequence of the adrenaline α1 A receptor gene reported by Hirasawa A. et al. (Biochem. Biophys. Res. Commun., 195, 902-909 (1993)): 5′-[…]-3′ [SEQ ID NO: 1], and 5′-[…]-3′ [SEQ ID NO: 2], and using a TaKaRa Pyrobest DNA Polymerase (Takara Shuzo Co., Ltd.) (reaction condition: 45 cycles of 94° C. for 15 seconds and 68° C. for 3 minutes and 30 seconds).\nThus obtained PCR fragments were digested with a restriction enzyme Eco RI (Takara Shuzo Co., Ltd.) and Sal I (Takara Shuzo Co., Ltd.), and then subjected to electrophoresis on agarose gel to recover DNA fragments. […]", "units": {"IC50": "nM"}}
{"smiles": "NS(=O)(=O)c1cc(C(=O)CCCCNCCc2ccccc2OC(F)(F)F)cc2c1OCC2", "note": "[Example 6, 5-[5-({2-[2-(Trifluoromethoxy)phenyl]ethyl}amino)-pentanoyl]-2,3-dihydro-1-benzofuran-7-sulfonamide tosylate]", "IC50": 19}
{"smiles": "COc1ccccc1N1CCN(CCCNc2cc(=O)n(C)c(=O)n2C)CC1", "note": "[Urapidil, urapidil, reference compound]", "IC50": 470}
{"system": "not given", "assay": "not given", "conditions": "not given", "units": {"melting point": "°C"}}
{"smiles": "CNS(=O)(=O)c1cc(C(=O)CCCCNCCc2ccccc2OC(F)(F)F)cc2c1OCC2.Cl", "melting point": "135 to 137"}
{"smiles": "CC(=O)Nc1cc(C(=O)CCCCNCCc2ccccc2OC(F)(F)F)cc2c1OCC2.Cl", "melting point": "120 to 122"}
{"smiles": "CNS(=O)(=O)c1cc(C(=O)CCCCNCCc2ccccc2OC(F)(F)F)cc2c1CCC2.Cl", "melting point": "143 to 145"}
{"smiles": "COc1ccccc1CCNCCCCCC(=O)c1cc2c(c(S(N)(=O)=O)c1)OCC2.Cl", "melting point": "92 to 94"}
{"smiles": "COc1ccc(C(=O)CCCCNCCc2ccccc2OC(F)(F)F)cc1S(=O)(=O)NC(C)C.Cl", "melting point": "156 to 158"}
{"smiles": "Cl.NS(=O)(=O)c1cc(C(=O)CCCCNCCc2ccccc2OC(F)(F)F)cc2c1CCC2", "melting point": "139 to 141"}
{"smiles": "COc1ccc(C(=O)CCCCNCCc2ccccc2OC(F)(F)F)cc1S(N)(=O)=O.Cl", "melting point": "169 to 171"}
{"smiles": "Cl.NS(=O)(=O)c1cc(C(=O)CCCCNCCc2ccccc2OC(F)(F)F)cc2c1OCCO2", "melting point": "111 to 113"}
{"smiles": "Cl.NS(=O)(=O)c1cc(C(=O)CCCCCNCCc2ccccc2OC(F)(F)F)cc2c1OCC2", "melting point": "85 to 87"}
{"smiles": "Cl.NS(=O)(=O)c1cc(C(=O)CCCCCNCCc2ccccc2Cl)cc2c1OCC2", "melting point": "107 to 109"}
{"smiles": "NS(=O)(=O)c1cc(C(O)CCCCNCCc2ccccc2OC(F)(F)F)cc2c1OCC2.O=C(O)/C=C\\C(=O)O", "note": "(stereo not shown)", "melting point": "61 to 63"}
{"smiles": "COc1ccccc1CCNCCCCC(=O)c1cc2c(c(S(N)(=O)=O)c1)CCC2.Cl", "melting point": "106 to 108"}
{"smiles": "Cl.NS(=O)(=O)c1cc(C(=O)CCCCNCCc2ccccc2Cl)cc2c1CCC2", "melting point": "167 to 169"}
{"smiles": "CC(C)NS(=O)(=O)c1cc(C(=O)CCCCNCCc2ccccc2OC(F)(F)F)cc2c1OCC2.Cl", "melting point": "173 to 175"}
{"smiles": "CS(=O)(=O)Nc1cc(C(=O)CCCCNCCc2ccccc2OC(F)(F)F)cc2c1OCC2.Cl", "melting point": "112 to 114"}
